Assay results reported in article PMC10975527 (Viruses, 2024).
Where two headings read alike, the source gives them in different places.

Key:
HCMV = experiment: Antiviral selectivity panel: HCMV; format: cell-based, human cytomegalovirus; settings: Human betaherpesvirus 5, MRC5; MRC-5 (human lung)
recombinant human PAPD5 = molecular target: T1, recombinant human PAPD5 (Homo sapiens, UniProt Q8NDF8); experiment: PAPD5 ATP depletion assay; format: biochemical; settings: 12.5 nM enzyme, 750 nM ATP, 3 h, mean of 3 experiments; read-out: IC50, PAPD5-mediated incorporation of ATP
T1 construct: made in house
T1 sequence (Q8NDF8 106-438 limits assumed): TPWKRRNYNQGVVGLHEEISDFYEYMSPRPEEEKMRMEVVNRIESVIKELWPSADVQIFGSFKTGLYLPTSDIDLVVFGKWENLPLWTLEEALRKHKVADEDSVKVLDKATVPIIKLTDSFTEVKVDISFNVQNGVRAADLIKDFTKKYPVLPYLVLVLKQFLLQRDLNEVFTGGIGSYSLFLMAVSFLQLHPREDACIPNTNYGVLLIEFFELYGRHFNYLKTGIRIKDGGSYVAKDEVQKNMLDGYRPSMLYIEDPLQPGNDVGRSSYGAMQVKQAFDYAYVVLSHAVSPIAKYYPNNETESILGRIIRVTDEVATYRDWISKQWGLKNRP

HBV genotypes A–H = experiment: HBV genotype coverage in HBV transfected Huh-7 cells (HBsAg); settings: Hepatitis B virus
[1] = system: HBsAg with SLα deletion mutant (ΔSLα) PRE; experiment: HBV PRE variant phenotyping in Huh-7: ΔSLα plasmid (HBsAg); format: cell-based; settings: Hepatitis B virus, Huh-7, 120 h, read-out: HBsAg EC50
[2] = Cytotoxicity in HepG2-hNTCP cells; format: cell-based; settings: human, HBV-infected HepG2-hNTCP-C4 cells
WNV = experiment: Antiviral selectivity panel: WNV; format: cell-based; settings: West Nile virus, Vero 76, in Primates; Vero76 (monkey kidney)
HBV (AAV-HBV) = experiment: AAV-HBV mouse model, serum HBsAg; settings: AAV-HBV mice; for mean reduction of serum HBsAg compared to pre-dose baseline: 14 days
in vitro [3] = format: in vitro ADME; settings: monkey, plasma
Sprague Dawley rats = experiment: 13-week repeat-dose toxicity study in rats; format: in vivo
[4] = Tolerability in AAV-HBV mice; settings: once-daily dosing for 14 days
in vitro [5] = format: in vitro ADME; settings: human
HCV = experiment: Antiviral selectivity panel: HCV; format: cell-based; settings: Hepatitis C virus; Huh-7 (human liver)
[6] = system: HBsAg expressed from integrated HBV; experiment: HBsAg from integrated HBV in PLC/PRF/5 cells; format: cell-based; settings: Hepatitis B virus, PLC-PRF-5, read-out: HBsAg EC50
in vitro [7] = settings: monkey
HBV = experiment: HBV-infected HepG2-hNTCP antiviral assay; format: cell-based; settings: Hepatitis B virus, genotype D
in vitro [8] = settings: bovine
HSV-1/HSV-2 = experiment: Antiviral selectivity panel: HSV-1/HSV-2; format: cell-based, herpes simplex virus-1/herpes simplex virus-2; settings: MRC5; MRC-5 (human lung)
in vitro [9] = format: in vitro ADME; settings: dog, plasma

Compound: COc1cc(OC(F)F)c2nc3c(n2c1)C[C@@H](C(C)(C)C)c1cc(C(=O)O)c(=O)[nH]c1-3 [AB-161]
- EC50 (HCMV): > 30000 nM
- CC50 (HEp2 (human epithelial)): > 30000 nM
- IC50 (recombinant human PAPD5): 850 nM
- EC50 (HBV genotypes A–H; Huh-7, read-out: HBsAg EC50, HBV transfected Huh-7, range over genotypes A–H): 2.1 to 4.5 nM
- EC50 (HBV genotypes A–H; Huh-7, read-out: HBsAg EC50, Huh-7, HBV genotype A): 3 ± 0.8 nM
- EC50 (HBV genotypes A–H; Huh-7, read-out: HBsAg EC50, Huh-7, HBV genotype B): 2.6 ± 1.4 nM
- EC50 (HBV genotypes A–H; Huh-7, read-out: HBsAg EC50, Huh-7, HBV genotype C): 2.3 ± 0.6 nM
- EC50 (HBV genotypes A–H; Huh-7, read-out: HBsAg EC50, Huh-7, HBV genotype D): 4.5 ± 2.8 nM
- EC50 (HBV genotypes A–H; Huh-7, read-out: HBsAg EC50, Huh-7, HBV genotype E): 2.5 ± 0.9 nM
- EC50 (HBV genotypes A–H; Huh-7, read-out: HBsAg EC50, Huh-7, HBV genotype F): 3.3 ± 2.6 nM
- EC50 (HBV genotypes A–H; Huh-7, read-out: HBsAg EC50, Huh-7, HBV genotype H-1): 2.4 ± 0.5 nM
- EC50 (HBV genotypes A–H; Huh-7, read-out: HBsAg EC50, Huh-7, HBV genotype H-2): 2.1 ± 0.9 nM
- EC50 [1]: > 100 nM
- CC50 [2]: > 10000 nM
- EC50 (WNV): > 30000 nM
- mean reduction of serum HBsAg compared to pre-dose baseline (HBV (AAV-HBV); 0.3 mg/kg oral QD): 0.13 log10
- mean reduction of serum HBsAg compared to pre-dose baseline (HBV (AAV-HBV); 1 mg/kg oral QD): 0.34 log10
- mean reduction of serum HBsAg compared to pre-dose baseline (HBV (AAV-HBV); 10 mg/kg oral QD): 0.71 log10
- mean reduction of serum HBsAg compared to pre-dose baseline (HBV (AAV-HBV); 30 mg/kg oral QD): 0.94 log10
- earliest time at which inhibition of serum HBsAg was observed (HBV (AAV-HBV); after initiation of dosing): 4 days
- mean maximal reduction of serum HBsAg compared to pre-dose baseline (HBV (AAV-HBV); oral QD 14 days, dose range 0.3 to 30 mg/kg): 0.94 ± 0.56 log10
- fraction unbound at 6 h, 500 ng/mL (in vitro [3]): 0.02
- CC50 (Huh-7 cells; HBV transfected Huh-7, genotypes A–H): > 50000 nM
- CC50 (Huh-7 cells; Huh-7, HBV genotype A): > 50000 nM
- CC50 (Huh-7 cells; Huh-7, HBV genotype C): > 50000 nM
- CC50 (Huh-7 cells; Huh-7, HBV genotype D): > 50000 nM
- CC50 (Huh-7 cells; Huh-7, HBV genotype E): > 50000 nM
- CC50 (Huh-7 cells; Huh-7, HBV genotype F): > 50000 nM
- CC50 (Huh-7 cells; Huh-7, HBV genotype H-1): > 50000 nM
- CC50 (Huh-7 cells; Huh-7, HBV genotype H-2): > 50000 nM
- reproductive safety findings (Sprague Dawley rats; male or female rats, 13-week administration, all doses): no reproductive safety findings
- motor nerve conduction (Sprague Dawley rats; rats): No differences from baseline or time-matched controls
- sensory nerve conduction velocity (NCV) (Sprague Dawley rats; rats, 500 mg/kg, day 70 and day 119, considered non-adverse): NCV delays were noted
- tolerability [4]: well-tolerated
- plasma protein binding, bound (in vitro [5]; 6 h, 500 ng/mL): 95%
- fraction unbound at 6 h, 500 ng/mL (in vitro [5]; plasma, plasma protein binding, bound): 0.049
- EC50 (HCV): > 30000 nM
- EC50 [6]: 5.9 ± 2.5 nM
- CC50 (in vitro [7]): > 30000 nM
- EC50 (HBV; read-out: HBV RNA EC50 (converted)): 30.1 nM
- EC50 (HBV; read-out: HBeAg EC50 (converted)): 20.9 nM
- EC50 (HBV; read-out: HBsAg EC50): 25.3 ± 10.9 nM
- CC50 (in vitro [8]): > 30000 nM
- EC50 (HSV-1/HSV-2): > 30000 nM
- fraction unbound at 6 h, 500 ng/mL (in vitro [9]): 0.047
- CC50 (MRC-5 (human lung)): > 30000 nM
